28 molecules from US11298345B2, “Compounds that modulates AMPA receptor function” (University College Cardiff Consultants Limited, priority 2018, dated 2022) can be followed below.

In this experiment the target is T1, human GluR2 flip (unedited) AMPA receptor subunit (Homo sapiens, UniProt P42262).
T1 construct: host or cells: HEK 293
T1 sequence (P42262 22-883 isoform P42262-2 limits assumed): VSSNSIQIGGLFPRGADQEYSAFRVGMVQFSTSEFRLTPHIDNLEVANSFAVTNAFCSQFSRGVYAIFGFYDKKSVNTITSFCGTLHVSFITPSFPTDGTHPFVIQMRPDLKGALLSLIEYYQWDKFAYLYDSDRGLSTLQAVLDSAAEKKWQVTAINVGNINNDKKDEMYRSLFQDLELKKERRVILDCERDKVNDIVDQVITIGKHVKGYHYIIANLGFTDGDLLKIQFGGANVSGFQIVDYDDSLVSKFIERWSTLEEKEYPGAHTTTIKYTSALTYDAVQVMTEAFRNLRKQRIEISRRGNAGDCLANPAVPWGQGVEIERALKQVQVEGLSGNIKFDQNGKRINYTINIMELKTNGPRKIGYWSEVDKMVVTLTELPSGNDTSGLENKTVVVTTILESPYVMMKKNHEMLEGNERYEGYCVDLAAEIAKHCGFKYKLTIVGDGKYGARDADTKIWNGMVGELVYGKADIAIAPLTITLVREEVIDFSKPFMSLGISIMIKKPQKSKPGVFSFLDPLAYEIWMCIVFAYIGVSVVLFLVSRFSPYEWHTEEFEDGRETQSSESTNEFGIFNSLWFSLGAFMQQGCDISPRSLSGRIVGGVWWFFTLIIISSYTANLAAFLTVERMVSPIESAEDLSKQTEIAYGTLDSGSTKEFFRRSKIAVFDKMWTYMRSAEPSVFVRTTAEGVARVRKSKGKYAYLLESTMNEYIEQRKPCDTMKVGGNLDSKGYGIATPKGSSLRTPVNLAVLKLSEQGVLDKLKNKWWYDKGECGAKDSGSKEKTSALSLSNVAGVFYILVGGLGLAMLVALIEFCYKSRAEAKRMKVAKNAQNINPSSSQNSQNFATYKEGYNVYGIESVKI
Kind of experiment: AMPA calcium ion influx assay. It counts as cell-based. The following applies: HEK293; test compound concentration of 10 μM; HEK 293 cells expressing human GluR2 flip; glutamate stimulus; read-out: Mean % response at 10 μM. The text has this: The potentiation of AMPA receptors by the compounds of the invention may be assessed by measuring calcium ion influx via AMPA receptors upon exposure of the receptor to glutamate in the presence of a test compound. One such assay is the calcium ion influx assay described in the Examples using cells which express human GluR2 flip (GluA2 flip) AMPA receptor subunits which form functional homotetrameric AMPA receptors. The GluA2 flip sub-units are highly expressed in cortical and sub-cortical brain tissue (Ward et al., 2010, ibid).
The ability of the compounds of the invention to potentiate glutamate receptor-mediated response was determined using fluorescent calcium-indicator dye.
96 well plates were prepared containing confluent monolayer of HEK 293 cells stably expressing human GluR2 flip (unedited) AMPA receptor subunit (obtained from GlaxoSmithKline). These cells form functional homotetrameric AMPA receptors. The tissue culture medium in the wells was discarded and the wells were each washed three times with standard buffer for the cell line ([…] NaCl, 5 mM KCl, 1 mM MgCl2, 2 mM CaCl2, 20 mM N-[2-hydroxyethyl]-piperazine-N-[2-ethanesulfonic acid (HEPES), 5.5 mM glucose, pH7.3). The plates were then incubated for 60 minutes in the dark with 2 μM Calcium 6 dye (Molecular Devices). After incubation, each well was washed three times with buffer (80 μl).
Compounds of the invention were dissolved in dimethylsulfoxide (DMSO) at a stock concentration of 10 mM. These solutions were further diluted with DMSO. Each dilution (4 μl) to another compound plate and buffer (200 μl) was added. An agonist stimulus plate (glutamate) was prepared by dissolving sodium glutamate in water to give a concentration of 100 mM. This solution was diluted with buffer to give a final concentration of 500 μM and dispensed into another 96 well plate (200 μl/well).
The cell plate was then transferred to a fluorescence imaging plate reader such as the Flexstation 3 (Molecular Devices). A baseline fluorescence was taken over a 10 to 240 second period and then 40 μl from each plate containing a compound of the invention made up in standard buffer solution was added. Volumes were chosen to give a final concentration range of 40 μM to 4 μM. The fluorescence was then read over a 4 minute period. The activities of the compounds were determined by measuring peak fluorescence after the last addition. The activity can also be expressed relative to the fluorescence increase induced by cyclothiazide at their maximum response (i.e. greater than 40 μM).
Consider `Cc1cc(C(F)(F)F)nc(-c2ccc(CN3CCCC3=O)nc2)c1CF` [Example 22, 1-[[5-[3-(Fluoromethyl)-4-methyl-6-(trifluoromethyl)-2-pyridyl]-2-pyridyl]methyl]pyrrolidin-2-one], for which the activation at 10 µM came to 93%.

As to `CNC(=O)c1c(C)cc(C(F)(F)F)nc1-c1ccc(CN2CCCC2=O)cc1` [Example 3, N,4-Dimethyl-2-[4-[(2-oxopyrrolidin-1-yl)methyl]phenyl]-6-(trifluoromethyl)pyridine-3-carboxamide], the activation at 10 µM is 4%.

With `O=C1CCCN1Cc1ccc(-c2nc(C(F)(F)F)ccc2CO)cc1` [Example 4, 1-[[4-[3-(Hydroxymethyl)-6-(trifluoromethyl)-2-pyridyl]phenyl]methyl]pyrrolidin-2-one], the activation at 10 µM turned out to be 9%.

Turning to `O=C1CCCN1Cc1ccc(-c2nc(C(F)(F)F)ncc2CF)cc1` [Example 18, 1-[[4-[5-(Fluoromethyl)-2-(trifluoromethyl)pyrimidin-4-yl]phenyl]methyl]pyrrolidin-2-one], the activation at 10 µM is 5%.

With `O=C1COCCN1Cc1ccc(-c2nc(C(F)(F)F)ccc2CF)cc1` [Example 21, 4-[[4-[3-(Fluoromethyl)-6-(trifluoromethyl)-2-pyridyl]phenyl]methyl]morpholin-3-one], the activation at 10 µM came to 16%.

As to `O=C1COCCN1Cc1ccc(-c2nc(C(F)(F)F)ccc2CO)cc1` [Example 10, 4-[[4-[3-(Hydroxymethyl)-6-(trifluoromethyl)-2-pyridyl]phenyl]methyl]morpholin-3-one], the activation at 10 µM was 3%.

With `O=C1CCCN1Cc1ccc(-c2cc(CO)cc(C(F)(F)F)n2)cc1` [Example 25, 1-[[4-[4-(Hydroxymethyl)-6-(trifluoromethyl)-2-pyridyl]phenyl]methyl]pyrrolidin-2-one], the activation at 10 µM was 8%.

In the case of `Cc1cc(C(F)(F)F)nc(-c2ccc(CN3CCCC3=O)cc2)c1CF` [Example 17, 1-[[4-[3-(Fluoromethyl)-4-methyl-6-(trifluoromethyl)-2-pyridyl]phenyl]methyl]pyrrolidin-2-one], the activation at 10 µM is 111%.

For the molecule `N#Cc1ccc(C(F)(F)F)nc1-c1ccc(CN2CCOCC2=O)cc1` [Example 11, 2-[4-[(3-Oxomorpholin-4-yl)methyl]phenyl]-6-(trifluoromethyl)pyridine-3-carbonitrile], the activation at 10 µM stood at 11%.

With `Cc1cc(C(F)(F)F)nc(-c2ccc(CN3CCCC3=O)nc2)c1CO` [Example 14, 1-[[5-[3-(Hydroxymethyl)-4-methyl-6-(trifluoromethyl)-2-pyridyl]-2-pyridyl]methyl]pyrrolidin-2-one], the activation at 10 µM was found to be 5%.

Take `COCc1cc(-c2ccc(CN3CCCC3=O)cc2)nc(C(F)(F)F)c1` [Example 26, 1-[[4-[4-(Methoxymethyl)-6-(trifluoromethyl)-2-pyridyl]phenyl]methyl]pyrrolidin-2-one]: the activation at 10 µM is 4%.

In the case of `Cc1cc(C(F)(F)F)nc(-c2ccc(CN3CCCC3=O)cc2)c1CO` [Example 2, 1-[[4-[3-(Hydroxymethyl)-4-methyl-6-(trifluoromethyl)-2-pyridyl]phenyl]methyl]pyrrolidin-2-one], the activation at 10 µM turned out to be 41%.

As to `Cc1cc(C(F)(F)F)nc(-c2ccc(CN3CCOCC3=O)cc2)c1CO` [Example 9, 4-[[4-[3-(Hydroxymethyl)-4-methyl-6-(trifluoromethyl)-2-pyridyl]phenyl]methyl]morpholin-3-one], the activation at 10 µM worked out at 14%.

For `O=C1CCCN1Cc1ccc(-c2nc(C(F)F)ccc2CO)cc1` [Example 28, 1-[[4-[6-(Difluoromethyl)-3-(hydroxymethyl)-2-pyridyl]phenyl]methyl]pyrrolidin-2-one], the activation at 10 µM worked out at 2%.

For `Cc1cc(C(F)(F)F)nc(-c2ccc(CN3CCCOCC3=O)cc2)c1CO` [Example 12, 4-[[4-[3-(Hydroxymethyl)-4-methyl-6-(trifluoromethyl)-2-pyridyl]phenyl]methyl]-1,4-oxazepan-3-one], the activation at 10 µM came to 9%.

Regarding `O=C1CCCN1Cc1ccc(-c2ccc(CO)c(C(F)(F)F)n2)cc1` [Example 1, 1-[[4-[5-(Hydroxymethyl)-6-(trifluoromethyl)-2-pyridyl]phenyl]methyl]pyrrolidin-2-one], the activation at 10 µM was determined as 33%.

For the molecule `N#Cc1ccc(C(F)(F)F)nc1-c1ccc(CN2CCCC2=O)nc1` [Example 15, 2-[6-[(2-Oxopyrrolidin-1-yl)methyl]-3-pyridyl]-6-(trifluoromethyl)pyridine-3-carbonitrile], the activation at 10 µM was 6%.

`Cc1cc(C(F)(F)F)nc(-c2ccc(CN3CCOCC3=O)cc2)c1C#N` [Example 24, 4-Methyl-2-[4-[(3-oxomorpholin-4-yl)methyl]phenyl]-6-(trifluoromethyl)pyridine-3-carbonitrile]: the activation at 10 µM amounted to 39%.

Regarding `Cc1cc(C(F)(F)F)nc(-c2ccc(CN3CCOCC3=O)cc2)c1CF` [Example 20, 4-[[4-[3-(Fluoromethyl)-4-methyl-6-(trifluoromethyl)-2-pyridyl]phenyl]methyl]morpholin-3-one], the activation at 10 µM worked out at 112%.

Turning to `N#Cc1ccc(C(F)(F)F)nc1-c1ccc(CN2CCCC2=O)cc1` [Example 7, 2-[4-[(2-Oxopyrrolidin-1-yl)methyl]phenyl]-6-(trifluoromethyl)pyridine-3-carbonitrile], the activation at 10 µM was 21%.

As for `O=C1CCCN1Cc1ccc(-c2nc(C(F)(F)F)ccc2CF)cn1` [Example 23, 1-[[5-[3-(Fluoromethyl)-6-(trifluoromethyl)-2-pyridyl]-2-pyridyl]methyl]pyrrolidin-2-one], the activation at 10 µM amounted to 9%.

Take `O=C1CCCN1Cc1ccc(-c2ccc(CF)c(C(F)(F)F)n2)cc1` [Example 16, 1-[[4-[5-(Fluoromethyl)-6-(trifluoromethyl)-2-pyridyl]phenyl]methyl]pyrrolidin-2-one]: the activation at 10 µM amounted to 28%.

For `Cc1cc(C(F)(F)F)nc(-c2ccc(CN3CCCC3=O)cc2)n1` [Example 27, 1-[[4-[4-Methyl-6-(trifluoromethyl)pyrimidin-2-yl]phenyl]methyl]pyrrolidin-2-one], the activation at 10 µM turned out to be 27%.

With `Cc1nc(C(F)(F)F)nc(-c2ccc(CN3CCCC3=O)cc2)c1C` [Example 6, 1-[[4-[5,6-Dimethyl-2-(trifluoromethyl)pyrimidin-4-yl]phenyl]methyl]pyrrolidin-2-one], the activation at 10 µM was 29%.

Consider `O=C1COCCN1Cc1ccc(-c2ccc(CO)c(C(F)(F)F)n2)cc1` [Example 8, 4-[[4-[5-(Hydroxymethyl)-6-(trifluoromethyl)-2-pyridyl]phenyl]methyl]morpholin-3-one], for which the activation at 10 µM is 14%.

For the molecule `Cc1cc(C(F)(F)F)nc(-c2ccc(CN3CCCC3=O)cc2)c1C#N` [Example 5, 4-Methyl-2-[4-[(2-oxopyrrolidin-1-yl)methyl]phenyl]-6-(trifluoromethyl)pyridine-3-carbonitrile], the activation at 10 µM was 99%.

With `Cc1cc(C(F)(F)F)nc(-c2ccc(CN3CCOCCC3=O)cc2)c1CO` [Example 13, 4-[[4-[3-(Hydroxymethyl)-4-methyl-6-(trifluoromethyl)-2-pyridyl]phenyl]methyl]-1,4-oxazepan-5-one], the activation at 10 µM came out at 5%.

As to `O=C1CCCN1Cc1ccc(-c2nc(C(F)(F)F)ccc2CF)cc1` [Example 19, 1-[[4-[3-(Fluoromethyl)-6-(trifluoromethyl)-2-pyridyl]phenyl]methyl]pyrrolidin-2-one], the activation at 10 µM is 70%.
